Literature values as cited in patent US20070092567A1 (GALEPHAR M/F, priority 2001, published 2007).
Entries after “also recorded” stand apart in the source; their conditions may differ.

Key:
cytochrome P450 3A4 = cytochrome P450 3A4 (Homo sapiens, UniProt P08684)
[1] = molecular target: cytochrome P450 2C9 isoenzyme (Homo sapiens, UniProt P11712)
[2] = not given; remark: listed apart in the source

cytochrome P450 3A4, sequence (P08684 whole entry): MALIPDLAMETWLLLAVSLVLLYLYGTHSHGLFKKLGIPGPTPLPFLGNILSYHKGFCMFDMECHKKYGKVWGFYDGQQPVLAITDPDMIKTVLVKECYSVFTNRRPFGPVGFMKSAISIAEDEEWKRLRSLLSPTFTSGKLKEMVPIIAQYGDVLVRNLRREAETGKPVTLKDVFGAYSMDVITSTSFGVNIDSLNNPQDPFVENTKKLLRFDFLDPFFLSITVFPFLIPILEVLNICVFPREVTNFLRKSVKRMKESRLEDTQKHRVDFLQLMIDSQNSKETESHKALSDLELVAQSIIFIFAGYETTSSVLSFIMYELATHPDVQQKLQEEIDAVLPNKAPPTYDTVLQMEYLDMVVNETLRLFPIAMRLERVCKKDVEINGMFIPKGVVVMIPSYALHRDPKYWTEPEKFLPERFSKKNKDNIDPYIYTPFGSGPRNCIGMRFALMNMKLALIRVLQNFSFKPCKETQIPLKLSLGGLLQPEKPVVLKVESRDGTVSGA
cytochrome P450 2C9 isoenzyme, sequence (P11712 whole entry): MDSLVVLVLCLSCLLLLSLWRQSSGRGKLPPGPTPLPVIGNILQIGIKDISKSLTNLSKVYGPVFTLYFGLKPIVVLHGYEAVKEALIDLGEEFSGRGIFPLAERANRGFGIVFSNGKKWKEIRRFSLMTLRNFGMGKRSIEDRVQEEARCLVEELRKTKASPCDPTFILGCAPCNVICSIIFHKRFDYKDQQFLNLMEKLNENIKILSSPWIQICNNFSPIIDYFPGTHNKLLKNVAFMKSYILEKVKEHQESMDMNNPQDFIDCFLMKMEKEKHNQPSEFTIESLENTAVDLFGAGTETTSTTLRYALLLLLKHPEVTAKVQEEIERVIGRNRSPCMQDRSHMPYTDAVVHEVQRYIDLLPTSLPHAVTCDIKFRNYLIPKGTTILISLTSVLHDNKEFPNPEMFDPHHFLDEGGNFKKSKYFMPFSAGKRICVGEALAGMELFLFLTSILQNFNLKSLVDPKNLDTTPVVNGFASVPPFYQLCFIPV

For CC(C)(Oc1ccc(C(=O)c2ccc(Cl)cc2)cc1)C(=O)O [fenofibric acid], the mean plasma half-life (healthy, fasting young adults) is given as 19.6 to 26.6 h, the “eliminated in the urine as fenofibric acid ester glucuronide” value (in vivo) is given as 60-88% and the Peak plasma levels (single oral dose of 300 mg fenofibrate) is given as 6 to 9.5 mg/L.
For CC(C)OC(=O)C(C)(C)Oc1ccc(C(=O)c2ccc(Cl)cc2)cc1 [Fenofibrate, p-(4-chlorobenzoyl)-phenoxy isobutyrate isopropyl ester], the “metabolisation by cytochrome P450 3A4” value (cytochrome P450 3A4) is listed as “not metabolised by cytochrome P450 3A4” and the “metabolisation by cytochrome P450 2C9 isoenzyme” value [1] is listed as “only weakly metabolised”.
In the case of CC[C@H](C)C(=O)O[C@H]1C[C@H](O)C=C2C=C[C@H](C)[C@H](CC[C@@H](O)C[C@@H](O)CC(=O)O)[C@H]21 [pravastatin], the “metabolisation through the cytochrome P450 system” value (cytochrome P450 system) is given as “not metabolised through the cytochrome P450 system; also recorded: does not involve the cytochrome P450 system”, the average oral absorption ([2]; based on urinary recovery of radiolabeled drug) is given as 34% and the “decrease of systemic bioavailability following a bedtime dose compared to morning administration” value ([2]; human, in vivo) is given as 60%.
